Measurements as given in patent publication US6455550B1, “N-alkanoylphenylalanine derivatives” (Hoffmann-La Roche Inc., priority 1997, dated 2002).
Where a name gives a salt, the structure may show the parent alone. Read-outs that look alike come from different tables or passages of the source.

Target: T1, VLA-4 (α4β1 integrin) binding to immobilized VCAM-1 (Homo sapiens, UniProt P05556+P13612)
T1 construct: followed by 10 μl of Ramos cell-derived VLA-4; endogenous in cells; host or cells: Ramos cells (VLA-4 preparation derived from the cells)
Assay: VLA-4/VCAM-1 Screening Assay (solid-phase, dual antibody ELISA)
Conditions: for IC50: Ramos cell-derived VLA-4, recombinant human VCAM-1 coated plates, 2 hr at 37° C.
Method: VLA-4 antagonist activity, defined as ability to compete for binding to immobilized VCAM-1 was quantitated using a solid-phase, dual antibody ELISA. VLA-4 (α4β1 integrin) bound to VCAM-1 was detected by a complex of anti-integrin β1 antibody: HRP-conjugated anti-mouse IgG: chromogenic substrate (K-Blue). Initially, this entailed coating 96 well plates (Nunc Maxisorp) with recombinant human VCAM-1 (0.4 μg in 100 μl PBS), sealing each plate and then allowing the plates to stand at 4° C for Å18 hr. […] On the day of assay, all plates were washed twice with VCAM Assay Buffer (200 μl/well of 50 mM Tris-HCl, 100 mM NaCl, 1 mM MnCl2, 0.05% Tween 20; pH 7.4). Test compounds were dissolved in 100% DMSO and then diluted 1:20 in VCAM Assay Buffer supplemented with 1 mg/mL BSA (i.e., final DMSO=5%). […] 100 μl per well of each dilution was added to the VCAM-coated plates, followed by 10 μl of Ramos cell-derived VLA-4. These plates were sequentially mixed on a platform shaker for 1 min, incubated for 2 hr at 37° C. and then washed four times with 200 μl/well VCAM Assay Buffer. 100 μl of mouse anti-human integrin β1 antibody was added to each well (0.6 μg/mL in VCAM Assay Buffer+1 mg/mL BSA) and allowed to incubate for 1 hr at 37° C. At the conclusion of this incubation period, all plates were washed four times with VCAM Assay Buffer (200 μl/well). A corresponding second antibody, HRP-conjugated goat anti-mouse IgG (100 μl per well @1:800 dilution in VCAM Assay Buffer+1 mg/mL BSA), was then added to each well, followed by a 1 hr incubation at room temperature and concluded by three washes (200 μl/well) with VCAM Assay Buffer. Color development was initiated by addition of 100 μl K-Blue per well (15 min incubation, room temp) and terminated by addition of 100 μl Red Stop Buffer per well. […] Results were calculated as % inhibition of total binding (i.e., VLA-4+VCAM-1 in the absence of test compound).

T1 sequence (P13612 34-1032): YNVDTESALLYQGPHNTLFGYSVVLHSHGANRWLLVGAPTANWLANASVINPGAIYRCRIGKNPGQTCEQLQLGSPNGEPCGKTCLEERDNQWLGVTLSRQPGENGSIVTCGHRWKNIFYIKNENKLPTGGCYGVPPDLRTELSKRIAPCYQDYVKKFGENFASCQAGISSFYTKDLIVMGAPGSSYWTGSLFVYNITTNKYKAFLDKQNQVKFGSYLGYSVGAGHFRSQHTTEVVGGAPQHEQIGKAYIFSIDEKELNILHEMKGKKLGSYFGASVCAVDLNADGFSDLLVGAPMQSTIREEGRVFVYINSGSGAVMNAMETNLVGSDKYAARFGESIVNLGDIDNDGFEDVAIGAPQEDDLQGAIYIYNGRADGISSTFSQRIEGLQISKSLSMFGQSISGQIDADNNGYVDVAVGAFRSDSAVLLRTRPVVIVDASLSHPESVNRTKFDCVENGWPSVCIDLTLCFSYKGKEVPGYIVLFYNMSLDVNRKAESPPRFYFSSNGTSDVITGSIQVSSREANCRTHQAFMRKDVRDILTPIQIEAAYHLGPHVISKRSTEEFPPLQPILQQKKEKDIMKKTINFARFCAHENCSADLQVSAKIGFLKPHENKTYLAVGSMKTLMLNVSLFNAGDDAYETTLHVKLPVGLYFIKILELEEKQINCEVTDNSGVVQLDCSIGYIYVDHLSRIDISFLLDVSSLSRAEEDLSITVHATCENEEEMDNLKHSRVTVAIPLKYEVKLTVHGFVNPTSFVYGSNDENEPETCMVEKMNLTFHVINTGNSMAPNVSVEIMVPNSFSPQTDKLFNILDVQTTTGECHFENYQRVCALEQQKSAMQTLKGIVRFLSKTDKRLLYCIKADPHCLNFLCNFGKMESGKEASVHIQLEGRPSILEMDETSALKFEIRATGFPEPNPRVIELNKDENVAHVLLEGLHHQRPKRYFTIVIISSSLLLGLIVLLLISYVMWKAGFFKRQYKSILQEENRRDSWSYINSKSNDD
T1 sequence (P05556 21-798): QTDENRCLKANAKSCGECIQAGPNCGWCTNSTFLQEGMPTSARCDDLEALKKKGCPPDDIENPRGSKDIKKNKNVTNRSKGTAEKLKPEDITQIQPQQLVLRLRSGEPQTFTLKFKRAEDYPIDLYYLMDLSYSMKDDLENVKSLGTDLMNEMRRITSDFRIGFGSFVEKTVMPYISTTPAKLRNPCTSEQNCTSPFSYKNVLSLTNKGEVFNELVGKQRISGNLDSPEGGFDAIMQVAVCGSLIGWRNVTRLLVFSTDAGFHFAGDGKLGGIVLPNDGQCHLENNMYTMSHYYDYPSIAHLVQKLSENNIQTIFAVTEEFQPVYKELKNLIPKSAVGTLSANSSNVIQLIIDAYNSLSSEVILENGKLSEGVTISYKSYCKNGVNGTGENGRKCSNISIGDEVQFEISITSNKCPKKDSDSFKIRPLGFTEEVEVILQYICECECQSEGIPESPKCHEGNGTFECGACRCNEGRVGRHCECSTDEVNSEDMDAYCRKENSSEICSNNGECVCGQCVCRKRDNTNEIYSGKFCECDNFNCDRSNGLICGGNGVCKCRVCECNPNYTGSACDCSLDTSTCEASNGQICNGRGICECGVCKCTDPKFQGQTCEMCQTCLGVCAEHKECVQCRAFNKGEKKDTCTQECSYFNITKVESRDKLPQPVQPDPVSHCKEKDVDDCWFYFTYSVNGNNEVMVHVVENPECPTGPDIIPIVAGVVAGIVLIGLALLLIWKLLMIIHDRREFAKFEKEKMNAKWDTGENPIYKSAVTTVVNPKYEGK

Row | Compound | IC50 (read-out: IC50) [nM] | IC50 (IC50 nM) [nM] | inhibition at 0.01 µM [%] | inhibition at 0.1 µM [%]
1 | 4-[[(4-Cyano-4-phenyl-1-piperidinyl)carbonyl]amino]-L-phenylalanine on Wang Resin [Example 116] | 0.88 | – | – | –
2 | COCCC1(C(=O)NC(Cc2ccc(N3C(=O)C(CC(C)C)N(C(C)=O)C3c3ccc(OC)cc3)cc2)C(=O)O)CCCC1 (single isomer, unassigned) [Example 130] | 6.6 | – | – | –
3 | COCCC1(C(=O)NC(Cc2ccc(N3C(=O)C(CC(C)C)N(C(C)=O)C3c3ccc(OC)cc3)cc2)C(=O)O)CCCC1 (single isomer, unassigned) [Example 131] | 63 | – | – | –
4 | COCCC1(C(=O)NC(Cc2ccc(N3C(=O)C(CC(C)C)N(C(C)=O)C3c3ccc(Cl)cc3)cc2)C(=O)O)CCCC1 (single isomer, unassigned) [Example 132] | 2.8 | – | – | –
5 | COCCC1(C(=O)NC(Cc2ccc(N3C(=O)C(CC(C)C)N(C(C)=O)C3c3ccc(Cl)cc3)cc2)C(=O)O)CCCC1 (single isomer, unassigned) [Example 133] | 60 | – | – | –
6 | COCCC1(C(=O)NC(Cc2ccc(N3C(=O)C(CC(C)C)N(C(C)=O)C3c3ccc(OC)cc3)cc2)C(=O)O)CCCC1 (single isomer, unassigned) [Example 136] | 0.73 | – | – | –
7 | COCCC1(C(=O)NC(Cc2ccc(N3C(=O)C(CC(C)C)N(C(C)=O)C3c3ccc(OC)cc3)cc2)C(=O)O)CCCC1 (single isomer, unassigned) [Example 137] | 19 | – | – | –
8 | COCCC1(C(=O)NC(Cc2ccc(N3C(=O)C(CC(C)C)N(C(C)=O)C3c3ccc(Cl)cc3)cc2)C(=O)O)CCCC1 (single isomer, unassigned) [Example 138] | 0.42 | – | – | –
9 | COCCC1(C(=O)NC(Cc2ccc(N3C(=O)C(CC(C)C)N(C(C)=O)C3c3ccc(Cl)cc3)cc2)C(=O)O)CCCC1 (single isomer, unassigned) [Example 139] | 38 | – | – | –
10 | O=C(Nc1ccc(C[C@H](NC(=O)C2(c3ccccc3)CCCC2)C(=O)O)cc1)c1ccnc2ccccc12 [Example 27, N-[(1-Phenylcyclopentyl)carbonyl]-4-[(4-quinolinylcarbonyl)amino]-L-phenylalanine Sodium Salt] | 2.7 | – | – | –
11 | O=C(Nc1ccc(C[C@H](NC(=O)C2(Cc3ccccc3)CCCC2)C(=O)O)cc1)c1ccccc1[N+](=O)[O-] [Example 35, 4-[[(2-Nitrophenyl)carbonyl]amino]-N-[[1-(phenylmethyl)cyclopentyl]carbonyl]-L-phenylalanine] | 5 | – | – | –
12 | Cc1ccc([N+](=O)[O-])cc1C(=O)Nc1ccc(C[C@H](NC(=O)C2(Cc3ccccc3)CCCC2)C(=O)O)cc1 [Example 36, 4-[[(2-Methyl-5-nitrophenyl)carbonyl]amino]-N-[[1-(phenylmethyl)cyclopentyl]carbonyl]-L-phenylalanine] | 4.6 | – | – | –
13 | O=C(Nc1ccc(C[C@H](NC(=O)C2(Cc3ccccc3)CCCC2)C(=O)O)cc1)c1c(Cl)cccc1Cl [Example 37, 4-[[(2,6-Dichlorophenyl)carbonyl]amino]-N-[[1-(phenylmethyl)cyclopentyl]carbonyl]-L-phenylalanine] | 5 | – | – | –
14 | COc1ccc(CC2(C(=O)N[C@@H](Cc3ccc(NC(=O)c4ccnc5ccccc45)cc3)C(=O)O)CCCC2)cc1 [Example 40, N-[[1-[(4-Methoxyphenyl)methyl]cyclopentyl]carbonyl]-4-[(4-quinolinylcarbonyl)amino]-L-phenylalanine] | 2.1 | – | – | –
15 | COc1ccc(CC2(C(=O)N[C@@H](Cc3ccc(NC(=O)c4ccccc4[N+](=O)[O-])cc3)C(=O)O)CCCC2)cc1 [Example 41, N-[[1-[(4-Methoxyphenyl)methyl]cyclopentyl]carbonyl]-4-[[(2-nitrophenyl)carbonyl]amino]-L-phenylalanine] | 1.7 | – | – | –
16 | COc1ccc(CC2(C(=O)N[C@@H](Cc3ccc(NC(=O)c4cc([N+](=O)[O-])ccc4C)cc3)C(=O)O)CCCC2)cc1 [Example 42, N-[[1-[(4-Methoxyphenyl)methyl]cyclopentyl]carbonyl]-4-[[(2-methyl-5-nitrophenyl)carbonyl]amino]-L-phenylalanine] | 0.61 | – | – | –
17 | Cn1nnnc1-c1cccc(CC2(C(=O)N[C@@H](Cc3ccc(NC(=O)c4c(Cl)cccc4Cl)cc3)C(=O)O)CCCC2)c1 [Example 48] | 0.44 | – | – | –
18 | CC1(C)C2CCC1(C(=O)NC(Cc1ccc(NC(=O)c3c(Cl)cccc3Cl)cc1)C(=O)O)C(=O)C2 (stereo not drawn) [Example 49] | 4.7 | – | – | –
19 | Cn1nnnc1-c1cccc(CC2(C(=O)N[C@@H](Cc3ccc(NC(=O)c4c(Cl)cccc4Cl)cc3)C(=O)O)CCCCC2)c1 [Example 50] | 1.3 | – | – | –
20 | O=C(Nc1ccc(C[C@H](NC(=O)C2(Cc3ccccc3Cl)CCCC2)C(=O)O)cc1)c1c(Cl)cccc1Cl [Example 51] | – | 1.6 | – | –
21 | COc1cccc(CC2(C(=O)N[C@@H](Cc3ccc(NC(=O)c4c(Cl)cccc4Cl)cc3)C(=O)O)CCCC2)c1 [Example 52] | – | 1.1 | – | –

Row | Compound | IC50 (read-out: IC50) [nM] | IC50 (IC50 nM) [nM] | inhibition at 0.01 µM [%] | inhibition at 0.1 µM [%]
22 | COc1ccc(CC2(C(=O)NC(Cc3ccc(NC(=O)c4c(Cl)cccc4Cl)cc3)C(=O)O)CCCC2)cc1OC (stereo not drawn) [Example 54] | 0.82 | – | – | –
23 | COCC1(C(=O)NC(Cc2ccc(NC(=O)c3c(Cl)cccc3Cl)cc2)C(=O)O)CCCC1 (stereo not drawn) [Example 60] | 1.05 | – | – | –
24 | CC1(C(=O)N[C@@H](Cc2ccc(NC(=O)c3ccnc4ccccc34)cc2)C(=O)O)CC1(Cl)Cl (stereo partly drawn) [Example 64, N-[(2,2-Dichloro-1-methylcyclopropyl)carbonyl]-4-[(4-quinolinylcarbonyl)amino]-L-phenylalanine] | 3 | – | – | –
25 | O=C(Nc1ccc(C[C@H](NC(=O)C23CC4CC(CC(C4)C2)C3)C(=O)O)cc1)c1ccnc2ccccc12 [Example 65] | 2.4 | – | 72 | 92
26 | CCCC(C)(CC)C(=O)N[C@@H](Cc1ccc(NC(=O)c2ccnc3ccccc23)cc1)C(=O)O (stereo partly drawn) [Example 68] | 8.2 | – | 49 | 86
27 | CCC(C(=O)N[C@@H](Cc1ccc(NC(=O)c2ccnc3ccccc23)cc1)C(=O)O)c1ccccc1 (stereo partly drawn) [Example 69] | 5.8 | – | 49 | 87
28 | CC1(C(=O)N[C@@H](Cc2ccc(NC(=O)c3ccnc4ccccc34)cc2)C(=O)O)CCCCC1 [Example 70] | 7 | – | 49 | 86
29 | CC1CCC(C)(C(=O)N[C@@H](Cc2ccc(NC(=O)c3ccnc4ccccc34)cc2)C(=O)O)C1(C)C (stereo partly drawn) [Example 71] | 2.5 | – | 51 | 86
30 | O=C(Nc1ccc(C[C@H](NC(=O)C2(c3ccccc3)CCCC2)C(=O)O)cc1)c1ccnc2ccccc12 [Example 75] | 3.8 | – | 68 | 92
31 | CC(C)C(C(=O)N[C@@H](Cc1ccc(NC(=O)c2ccnc3ccccc23)cc1)C(=O)O)c1ccccc1 (stereo partly drawn) [Example 76] | 4.6 | – | 73 | 93
32 | O=C(Nc1ccc(C[C@H](NC(=O)C2(c3ccccc3)CCCCC2)C(=O)O)cc1)c1ccnc2ccccc12 [Example 77] | 5.6 | – | 67 | 93
33 | Cc1ccc(C2(C(=O)N[C@@H](Cc3ccc(NC(=O)c4ccnc5ccccc45)cc3)C(=O)O)CCCC2)cc1 [Example 78] | 9 | – | 63 | 93
34 | COc1ccc(C2(C(=O)N[C@@H](Cc3ccc(NC(=O)c4ccnc5ccccc45)cc3)C(=O)O)CCCCC2)cc1 [Example 79] | 1.2 | – | 77 | 95
35 | O=C(Nc1ccc(C[C@H](NC(=O)C2(c3ccc(Cl)cc3)CCCC2)C(=O)O)cc1)c1ccnc2ccccc12 [Example 80] | 6.4 | – | 53 | 89
36 | O=C(Nc1ccc(C[C@H](NC(=O)C23CC4CC(CC(C4)C2)C3)C(=O)O)cc1)c1c(Cl)cccc1Cl [Example 83] | 1.1 | – | – | –
37 | O=C(Nc1ccc(CC(NC(=O)C23CC4CC(CC(C4)C2)C3)C(=O)O)cc1)c1ccc(F)cc1C(F)(F)F (stereo not drawn) [Example 84] | 4.4 | – | – | –
38 | Cc1ccc([N+](=O)[O-])cc1C(=O)Nc1ccc(C[C@H](NC(=O)C23CC4CC(CC(C4)C2)C3)C(=O)O)cc1 [Example 85] | 0.43 | – | – | –
39 | CC(=O)N[C@@H](Cc1ccc(O)cc1)C(=O)Nc1ccc(C[C@H](NC(=O)C23CC4CC(CC(C4)C2)C3)C(=O)O)cc1 [Example 86] | 6.8 | – | – | –
40 | CCCCC(C)(CC)C(=O)NC(Cc1ccc(NC(=O)CCN2CCCCC2)cc1)C(=O)O (stereo not drawn) [Example 87] | 1.5 | – | – | –
41 | CCCCC(C)(CC)C(=O)N[C@@H](Cc1ccc(NC(=O)c2c(Cl)cccc2Cl)cc1)C(=O)O (stereo partly drawn) [Example 88] | 3.9 | – | – | –
